Assay [1] concerns the target recombinant human NF-kappaB-inducing kinase (NIK/MAP3K14) (Homo sapiens (Human), UniProt Q99558). The experiment in a line: Inhibition of auto-phosphorylation of recombinant human NIK/MAP3K14 (AlphaScreen). It is filed as biochemical. Particulars: NIK auto-phosphorylation, 5 μM ATP, 1 nM NIK, 2 h at 25° C.; average of values. The procedure, abridged:
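AlphaScreen read-out (anti-phospho-IKK Ser176/180 antibody, Protein A acceptor and glutathione donor beads) of NIK auto-phosphorylation. Reaction: 1 nM enzyme, 5 μM ATP, Tris pH 7.5 buffer with Mg2+ and vanadate, 2 h at 25° C., final DMSO 0.7%. IC50 came from a sigmoidal curve fit.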

Assay [2] concerns p-IKKα levels in L363 (NIK translocated multiple myeloma) cells. The assay can be described thus: Effect of compounds on p-IKKα levels in L363 cells (AlphaLISA SureFire Ultra). It is filed as cell-based, human. Conditions: Homo sapiens, L-363, 6 h, BAFF stimulated, MG132, 6 h, average of values, read-out: Assay 2 IC50. The gist of the method: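 Inhibition of p-IKKα (Ser176/180) read by AlphaLISA after 6 h, 37 °C compound exposure (11-point 1:3 series, 0.3% DMSO) of L363 cells pre-incubated overnight ± 250 ng/ml BAFF and plated ± BAFF ± 10 μM MG132. Normalised to BAFF/MG132/DMSO and unstimulated controls; IC50 by sigmoidal fitting, duplicates.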
Background: Bead proximity is the source of the signal in Alpha formats.

The values below come from patent US20240199605A1, “SMALL MOLECULAR INHIBITORS OF NF-kB INDUCING KINASE” (Janssen Pharmaceutica NV, priority 2019, published 2024).

recombinant human NF-kappaB-inducing kinase (NIK/MAP3K14), sequence (Q99558 whole entry): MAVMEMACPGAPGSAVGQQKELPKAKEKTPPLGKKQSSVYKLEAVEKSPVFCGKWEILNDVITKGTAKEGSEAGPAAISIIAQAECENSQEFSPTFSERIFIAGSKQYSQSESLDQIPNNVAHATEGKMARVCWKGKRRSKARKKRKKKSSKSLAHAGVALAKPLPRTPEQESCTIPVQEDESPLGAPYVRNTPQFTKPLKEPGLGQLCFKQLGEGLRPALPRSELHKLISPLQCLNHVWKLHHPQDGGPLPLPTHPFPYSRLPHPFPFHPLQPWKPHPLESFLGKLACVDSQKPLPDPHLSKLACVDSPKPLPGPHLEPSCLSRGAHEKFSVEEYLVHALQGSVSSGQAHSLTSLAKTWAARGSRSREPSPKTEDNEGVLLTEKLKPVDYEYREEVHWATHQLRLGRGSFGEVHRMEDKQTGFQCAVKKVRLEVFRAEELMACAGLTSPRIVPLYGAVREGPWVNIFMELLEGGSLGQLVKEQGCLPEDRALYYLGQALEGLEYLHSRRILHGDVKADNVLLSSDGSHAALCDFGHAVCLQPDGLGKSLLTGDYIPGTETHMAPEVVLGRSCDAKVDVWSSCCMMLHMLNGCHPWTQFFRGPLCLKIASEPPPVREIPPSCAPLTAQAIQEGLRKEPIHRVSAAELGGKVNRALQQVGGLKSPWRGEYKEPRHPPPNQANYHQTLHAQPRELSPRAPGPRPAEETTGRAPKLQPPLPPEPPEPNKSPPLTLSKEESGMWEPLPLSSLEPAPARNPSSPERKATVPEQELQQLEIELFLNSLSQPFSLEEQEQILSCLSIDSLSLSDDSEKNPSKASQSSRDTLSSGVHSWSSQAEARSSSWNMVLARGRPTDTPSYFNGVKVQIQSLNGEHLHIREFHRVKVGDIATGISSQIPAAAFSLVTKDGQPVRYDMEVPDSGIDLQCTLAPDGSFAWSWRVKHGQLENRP

Regarding `Cc1nc(N)c2nc(-c3cccc(C#C[C@](C)(O)c4cnc(C)s4)c3)ccc2n1` [Example 157, (S)-4-(3-(4-Amino-2-methylpyrido[3,2-d]pyrimidin-6-yl)phenyl)-2-(2-methylthiazol-5-yl)but-3-yn-2-ol], the IC50 (commonly the concentration at which inhibition is half-maximal) in assay [1] was 3790 nM; in assay [2], greater than 5000 nM.

`Cc1cnc(N)c2nc(-c3cccc(C#C[C@]4(O)CCc5cccnc54)c3)ncc12` [Example 62, (R)-7-((3-(8-Amino-5-methylpyrido[3,4-d]pyrimidin-2-yl)phenyl)ethynyl)-6,7-dihydro-5H-cyclopenta[b]pyridin-7-ol]: the results for the IC50 in assay [1] and in assay [2] were no more than 0.5 nM and 22 nM, respectively.

For the compound `Cc1nc(N)c2nc(-c3cccc(C#C[C@]4(O)CCCN(C)C4=O)c3)ccc2n1` [Example 187, (R)-3-((3-(4-Amino-2-methylpyrido[3,2-d]pyrimidin-6-yl)phenyl)ethynyl)-3-hydroxy-1-methylpiperidin-2-one], the IC50 in assay [1] was found to be 3.8 nM; in assay [2] it was 190 nM.

Consider `CN1CC[C@@](O)(C#Cc2cccc(-c3ccc4nc(N)nc(N)c4n3)c2)C1=O` [Example 203, (R)-3-((3-(2,4-Diaminopyrido[3,2-d]pyrimidin-6-yl)phenyl)ethynyl)-3-hydroxy-1-methylpyrrolidin-2-one], for which the figures for the IC50 in assay [1] and in assay [2] were 1.2 nM and 100 nM, respectively.

On to `Cc1nc(N)c2nc(-c3cccc(C#C[C@@](C)(O)c4cnccn4)c3)ccc2n1` [Example 200, (R)-4-[3-(4-Amino-2-methyl-pyrido[3,2-d]pyrimidin-6-yl)phenyl]-2-pyrazin-2-yl-but-3-yn-2-ol], for which the values for the IC50 in assay [1] and in assay [2] were 29 nM and 3190 nM, respectively.

With `CN1CC[C@@](O)(C#Cc2cccc(-c3cnc4ncnc(N)c4n3)c2)C1=O` [Example 15, (R)-3-[2-[3-(4-Aminopteridin-6-yl)phenyl]ethynyl]-3-hydroxy-1-methyl-pyrrolidin-2-one], the IC50 in assay [1] was 0.9 nM; in assay [2], 50 nM.

For `CN1CC[C@@](O)(C#Cc2cccc(-c3ncc4c(-c5cnn(CCCC#N)c5)cnc(N)c4n3)c2)C1=O` [Example 140, (R)-4-[4-[8-Amino-2-[3-[2-(3-hydroxy-1-methyl-2-oxo-pyrrolidin-3-yl)ethynyl]phenyl]pyrido[3,4-d]pyrimidin-5-yl]pyrazol-1-yl]butanenitrile], the IC50 in assay [1] is no more than 0.5 nM; in assay [2], 6.2 nM.

For the compound `CN1CC[C@@](O)(C#Cc2cccc(-c3ccc4ncnc(NCC(F)F)c4n3)c2)C1=O` [Example 241, (R)-3-((3-(4-((2,2-Difluoroethyl)amino)pyrido[3,2-d]pyrimidin-6-yl)phenyl)ethynyl)-3-hydroxy-1-methylpyrrolidin-2-one], the half-inhibitory concentration (IC50) was determined as 56 nM in assay [1] and 930 nM in assay [2].

In the case of `Cc1ccc(C#CC2(O)CCCC2)cc1-c1nc2c(N)ncnc2s1` [Example 185, 1-[2-[3-(7-Aminothiazolo[5,4-d]pyrimidin-2-yl)-4-methyl-phenyl]ethynyl]cyclopentanol], the IC50 came out at 11 nM in assay [1] and 1520 nM in assay [2].

In the case of `Cc1nc(N)c2nc(-c3cccc(C#C[C@@]4(O)C(=O)N(C)C[C@H]4C)c3)ccc2n1` (stereo in doubt) [Example 292, (3R,4R*)-3-((3-(4-Amino-2-methylpyrido[3,2-d]pyrimidin-6-yl)phenyl)ethynyl)-3-hydroxy-1,4-dimethylpyrrolidin-2-one], the IC50 in assay [1] is 22 nM; in assay [2] it was 660 nM.

In the case of `Cc1nc(N)c2nc(-c3cccc(C#C[C@]4(O)CCN(C)C4=O)c3)cnc2n1` [Example 148, (R)-3-[2-[3-(4-Amino-2-methyl-pteridin-6-yl)phenyl]ethynyl]-3-hydroxy-1-methyl-pyrrolidin-2-one], the IC50 turned out to be 1.4 nM in assay [1] and 370 nM in assay [2].

For `CC(C)(O)C#Cc1cccc(-c2ncc3ccnc(N)c3n2)c1` [Example 35, 4-[3-(8-Aminopyrido[3,4-d]pyrimidin-2-yl)phenyl]-2-methyl-but-3-yn-2-ol], the results for the IC50 in assay [1] and in assay [2] were 15 nM and 700 nM, respectively.

Turning to `CN1CC[C@@](O)(C#Cc2cccc(-c3ccc4ncnc(N5CC(C)(C)C5)c4n3)c2)C1=O` [Example 226, (R)-3-((3-(4-(3,3-Dimethylazetidin-1-yl)pyrido[3,2-d]pyrimidin-6-yl)phenyl)ethynyl)-3-hydroxy-1-methylpyrrolidin-2-one], the IC50 in assay [1] turned out to be 42 nM; in assay [2], 1400 nM.

As for `Cc1nc(N)c2nc(-c3cccc(C#C[C@@](C)(O)c4nc(C(F)(F)F)cs4)c3)ccc2n1` [Example 192, (R)-4-(3-(4-Amino-2-methylpyrido[3,2-d]pyrimidin-6-yl)phenyl)-2-(4-(trifluoromethyl)thiazol-2-yl)but-3-yn-2-ol], the figures for the IC50 in assay [1] and in assay [2] were 1110 nM and greater than 5000 nM, respectively.

As to `Cc1cc(C#C[C@]2(O)CCN(C)C2=O)cc(-c2ncc3ccnc(N)c3n2)c1` [Example 42, (R)-3-((3-(8-Aminopyrido[3,4-d]pyrimidin-2-yl)-5-methylphenyl)ethynyl)-3-hydroxy-1-methylpyrrolidin-2-one], the IC50 was 1.3 nM in assay [1] and 29 nM in assay [2].

As to `Cc1nnc([C@](C)(O)C#Cc2cccc(-c3ccc4ncnc(N)c4c3)c2)o1` [Example 106, (R)-4-[3-(4-Aminoquinazolin-6-yl)phenyl]-2-(5-methyl-1,3,4-oxadiazol-2-yl)but-3-yn-2-ol], the IC50 turned out to be 14 nM in assay [1] and 1450 nM in assay [2].

On to `CN1CC[C@@](O)(C#Cc2cccc(-c3nc4ncnc(N)c4s3)c2)C1=O` [Example 214, (R)-3-((3-(7-Aminothiazolo[4,5-d]pyrimidin-2-yl)phenyl)ethynyl)-3-hydroxy-1-methylpyrrolidin-2-one], for which the figures for the IC50 in assay [1] and in assay [2] were 320 nM and greater than 5000 nM, respectively.

Turning to `CN1CC[C@@](O)(C#Cc2cccc(N3CCc4ccnc(N)c4C3)c2)C1=O` [Example 20, (R)-3-((3-(8-Amino-3,4-dihydro-2,7-naphthyridin-2(1H)-yl)phenyl)ethynyl)-3-hydroxy-1-methylpyrrolidin-2-one], the IC50 in assay [1] worked out at 1.2 nM; in assay [2], 55 nM.

`Cc1cc(-c2cccc(C#C[C@]3(O)CCN(C)C3=O)c2)nc2c(N)ncnc12` [Example 28, (R)-3-((3-(4-Amino-8-methylpyrido[3,2-d]pyrimidin-6-yl)phenyl)ethynyl)-3-hydroxy-1-methylpyrrolidin-2-one]: the results for the IC50 in assay [1] and in assay [2] were no more than 0.5 nM and 0.7 nM, respectively.

As for `CN1CC[C@@](O)(C#Cc2cccc(-c3ncc4c(C(=O)Oc5ccccc5)cnc(N)c4n3)c2)C1=O` [Example 128, (R)-Phenyl 8-amino-2-[3-[2-(3-hydroxy-1-methyl-2-oxo-pyrrolidin-3-yl)ethynyl]phenyl]pyrido[3,4-d]pyrimidine-5-carboxylate], the figures for the IC50 in assay [1] and in assay [2] were 0.6 nM and 28 nM, respectively.

On to `C=Cc1cc(-c2cccc(C#C[C@]3(O)CCN(C)C3=O)c2)nc2c(N)ncnc12` [Example 314, (R)-3-((3-(4-Amino-8-vinylpyrido[3,2-d]pyrimidin-6-yl)phenyl)ethynyl)-3-hydroxy-1-methylpyrrolidin-2-one], for which the IC50 in assay [1] worked out at 2.9 nM; in assay [2] it was 14 nM.

For `Cc1c(C#C[C@]2(O)CCN(C)C2=O)cccc1-c1ncc2ccnc(N)c2n1` [Example 41, (R)-3-((3-(8-Aminopyrido[3,4-d]pyrimidin-2-yl)-2-methylphenyl)ethynyl)-3-hydroxy-1-methylpyrrolidin-2-one], the results for the IC50 in assay [1] and in assay [2] were 68 nM and greater than 5000 nM, respectively.

For `Cc1nnc([C@](C)(O)C#Cc2ccc(C)c(-c3ncc4ccnc(N)c4n3)c2)o1` [Example 74, (R)-4-(3-(8-Aminopyrido[3,4-d]pyrimidin-2-yl)-4-methylphenyl)-2-(5-methyl-1,3,4-oxadiazol-2-yl)but-3-yn-2-ol], the IC50 in assay [1] worked out at 56 nM; in assay [2], 2950 nM.

As for `Cc1nc(-c2cccc(C#C[C@]3(O)CCN(C)C3=O)c2)nc2c(N)nccc12` [Example 37, (R)-3-((3-(8-Amino-4-methylpyrido[3,4-d]pyrimidin-2-yl)phenyl)ethynyl)-3-hydroxy-1-methylpyrrolidin-2-one], the results for the 50% inhibitory concentration (IC50) in assay [1] and in assay [2] were 0.6 nM and 35 nM, respectively.

With `CC(C)Cc1cnc(N)c2nc(-c3cccc(C#C[C@]4(O)CCN(C)C4=O)c3)ncc12` [Example 130, (R)-3-((3-(8-Amino-5-isobutylpyrido[3,4-d]pyrimidin-2-yl)phenyl)ethynyl)-3-hydroxy-1-methylpyrrolidin-2-one], the IC50 is 0.7 nM in assay [1] and 58 nM in assay [2].

Take `Cc1csc([C@@](C)(O)C#Cc2cccc(-c3ccc4nc(C)nc(N)c4n3)c2)n1` [Example 181, (S)-4-(3-(4-Amino-2-methylpyrido[3,2-d]pyrimidin-6-yl)phenyl)-2-(4-methylthiazol-2-yl)but-3-yn-2-ol]: the IC50 in assay [1] and in assay [2] was greater than 5000 nM each time.

On to `Cc1cnc(N)c2nc(-c3cccc(C#C[C@]4(O)CCN(C)C4=O)c3)ccc12` [Example 120, (R)-3-[2-[3-(8-Amino-5-methyl-1,7-naphthyridin-2-yl)phenyl]ethynyl]-3-hydroxy-1-methyl-pyrrolidin-2-one], for which the IC50 in assay [1] was no more than 0.5 nM; in assay [2], 21 nM.

Turning to `CN1CC[C@](O)(C#Cc2cccc(-c3ccc4ncnc(N5CCC5)c4n3)c2)C1=O` [Example 231, (S)-3-((3-(4-(Azetidin-1-yl)pyrido[3,2-d]pyrimidin-6-yl)phenyl)ethynyl)-3-hydroxy-1-methylpyrrolidin-2-one], the results for the IC50 in assay [1] and in assay [2] were 340 nM and greater than 5000 nM, respectively.
